Positions of bridges follow the written chain, without caps; N, C: chain ends. Residues, ends and D or L forms follow the SMILES beside them.
Molecular target: T1, rat α6/α3β2β3 nAChRs (Rattus norvegicus, UniProt P04757+P12390+P43143)
T1 construct: remaining part of the rat nAChR α3 subunit (Chrna3, UniProt P04757 by own knowledge), fused after the α6 extracellular portion; expressed in transfected cells; host or cells: Xenopus oocytes injected with in vitro transcribed cRNA
Format: cell-based

T1 sequence (P04757 whole entry, looked up, the tested form may be a part): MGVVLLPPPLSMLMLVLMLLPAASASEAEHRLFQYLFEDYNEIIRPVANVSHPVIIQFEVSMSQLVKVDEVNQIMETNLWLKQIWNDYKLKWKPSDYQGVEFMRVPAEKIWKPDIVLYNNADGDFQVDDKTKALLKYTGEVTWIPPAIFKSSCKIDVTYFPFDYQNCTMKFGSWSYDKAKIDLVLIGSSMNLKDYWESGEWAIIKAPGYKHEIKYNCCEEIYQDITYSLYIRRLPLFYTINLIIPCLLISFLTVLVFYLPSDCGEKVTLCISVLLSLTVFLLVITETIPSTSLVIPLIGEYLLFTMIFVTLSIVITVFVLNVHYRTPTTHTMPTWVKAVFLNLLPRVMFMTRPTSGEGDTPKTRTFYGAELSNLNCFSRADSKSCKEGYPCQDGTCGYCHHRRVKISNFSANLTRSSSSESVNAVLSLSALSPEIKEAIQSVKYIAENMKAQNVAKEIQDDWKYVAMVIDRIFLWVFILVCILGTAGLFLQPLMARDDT
T1 sequence (P12390 whole entry, looked up, the tested form may be a part): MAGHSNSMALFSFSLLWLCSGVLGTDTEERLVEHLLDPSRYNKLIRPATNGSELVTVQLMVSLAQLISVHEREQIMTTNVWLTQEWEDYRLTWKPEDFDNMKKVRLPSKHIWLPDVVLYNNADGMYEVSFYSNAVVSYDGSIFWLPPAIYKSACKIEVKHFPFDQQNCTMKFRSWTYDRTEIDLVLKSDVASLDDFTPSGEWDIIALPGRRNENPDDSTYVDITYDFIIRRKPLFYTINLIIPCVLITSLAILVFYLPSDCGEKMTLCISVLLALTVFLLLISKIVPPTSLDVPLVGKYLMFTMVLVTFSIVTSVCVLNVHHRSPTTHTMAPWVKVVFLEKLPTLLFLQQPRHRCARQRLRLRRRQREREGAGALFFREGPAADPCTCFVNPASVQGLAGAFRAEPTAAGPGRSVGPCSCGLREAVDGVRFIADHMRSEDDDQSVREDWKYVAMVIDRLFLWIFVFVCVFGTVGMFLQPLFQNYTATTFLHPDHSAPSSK
T1 sequence (P43143 whole entry, looked up, the tested form may be a part): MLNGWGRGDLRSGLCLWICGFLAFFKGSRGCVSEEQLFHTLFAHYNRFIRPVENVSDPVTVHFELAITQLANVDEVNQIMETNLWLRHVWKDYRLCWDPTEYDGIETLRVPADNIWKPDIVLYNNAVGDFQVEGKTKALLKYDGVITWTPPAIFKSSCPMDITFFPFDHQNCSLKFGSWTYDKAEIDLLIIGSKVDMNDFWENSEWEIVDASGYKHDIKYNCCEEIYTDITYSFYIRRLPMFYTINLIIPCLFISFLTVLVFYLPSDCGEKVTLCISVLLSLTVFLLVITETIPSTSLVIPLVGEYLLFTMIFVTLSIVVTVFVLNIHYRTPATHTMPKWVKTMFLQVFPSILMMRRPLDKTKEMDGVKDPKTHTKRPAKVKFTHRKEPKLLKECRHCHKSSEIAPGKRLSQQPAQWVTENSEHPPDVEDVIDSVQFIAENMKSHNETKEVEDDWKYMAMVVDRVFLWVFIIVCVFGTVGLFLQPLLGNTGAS

Row | SMILES | inhibition of α6β2* nAChRs
1 | CC(C)C[C@@H]1NC(=O)[C@H](CC(=O)O)NC(=O)[C@@H]2CCCN2C(=O)[C@H](Cc2c[nH]cn2)NC(=O)[C@H](CCCCN)NC(=O)[C@H](CC(N)=O)NC(=O)[C@H](CCCNC(=N)N)NC(=O)[C@@H]2CSSC[C@H](NC(=O)CN)C(=O)N[C@@H](CSSC[C@@H](C(N)=O)NC1=O)C(=O)N[C@@H](CO)C(=O)N[C@@H](CC(=O)O)C(=O)N1CCC[C@H]1C(=O)N1CCC[C@H]1C(=O)N2 [TxIB, α-Conotoxin TxIB, reference compound] (H-GCCSDPPCRNKHPDLC-NH2; disulfide 2-8, 3-16) | 42%
2 | CC(C)C[C@@H]1NC(=O)[C@H](CC(=O)O)NC(=O)[C@@H]2CCCN2C(=O)[C@H](Cc2c[nH]cn2)NC(=O)[C@H](CCCCN)NC(=O)[C@H](CC(N)=O)NC(=O)[C@H](CCCNC(=N)N)NC(=O)[C@@H]2CSSC[C@@H]3NC(=O)CNC(=O)CNC(=O)[C@H](C)NC(=O)[C@H](C)NC(=O)CNC(=O)[C@H](CSSC[C@H](NC3=O)C(=O)N[C@@H](CO)C(=O)N[C@@H](CC(=O)O)C(=O)N3CCC[C@H]3C(=O)N3CCC[C@H]3C(=O)N2)NC1=O [cTxIB-4] (cyclo(AAGGCCSDPPCRNKHPDLCG); disulfide 5-11, 6-19) | about 35%
3 | CC(C)C[C@@H]1NC(=O)[C@H](CC(=O)O)NC(=O)[C@@H]2CCCN2C(=O)[C@H](Cc2c[nH]cn2)NC(=O)[C@H](CCCCN)NC(=O)[C@H](CC(N)=O)NC(=O)[C@H](CCCNC(=N)N)NC(=O)[C@@H]2CSSC[C@@H]3NC(=O)CNC(=O)CNC(=O)[C@H](C)NC(=O)[C@H](C)NC(=O)CNC(=O)CNC(=O)[C@H](CSSC[C@H](NC3=O)C(=O)N[C@@H](CO)C(=O)N[C@@H](CC(=O)O)C(=O)N3CCC[C@H]3C(=O)N3CCC[C@H]3C(=O)N2)NC1=O [cTxIB-5] (cyclo(AAGGCCSDPPCRNKHPDLCGG); disulfide 5-11, 6-19) | ~42%
4 | CC(C)C[C@@H]1NC(=O)[C@H](CC(=O)O)NC(=O)[C@@H]2CCCN2C(=O)[C@H](Cc2c[nH]cn2)NC(=O)[C@H](CCCCN)NC(=O)[C@H](CC(N)=O)NC(=O)[C@H](CCCNC(=N)N)NC(=O)[C@@H]2CSSC[C@@H]3NC(=O)CNC(=O)CNC(=O)[C@H](C)NC(=O)[C@H](C)NC(=O)CNC(=O)[C@H](C)NC(=O)CNC(=O)[C@H](CSSC[C@H](NC3=O)C(=O)N[C@@H](CO)C(=O)N[C@@H](CC(=O)O)C(=O)N3CCC[C@H]3C(=O)N3CCC[C@H]3C(=O)N2)NC1=O [cTxIB-6] (cyclo(AAGGCCSDPPCRNKHPDLCGAG); disulfide 5-11, 6-19) | ~48%
5 | CC(C)C[C@@H]1NC(=O)[C@H](CC(=O)O)NC(=O)[C@@H]2CCCN2C(=O)[C@H](Cc2c[nH]cn2)NC(=O)[C@H](CCCCN)NC(=O)[C@H](CC(N)=O)NC(=O)[C@H](CCCNC(=N)N)NC(=O)[C@@H]2CSSC[C@@H]3NC(=O)CNC(=O)CNC(=O)[C@H](C)NC(=O)CNC(=O)[C@H](C)NC(=O)[C@H](C)NC(=O)CNC(=O)CNC(=O)[C@H](CSSC[C@H](NC3=O)C(=O)N[C@@H](CO)C(=O)N[C@@H](CC(=O)O)C(=O)N3CCC[C@H]3C(=O)N3CCC[C@H]3C(=O)N2)NC1=O [cTxIB-7] (cyclo(AAGAGGCCSDPPCRNKHPDLCGG); disulfide 7-13, 8-21) | ~41%

Reference: publication PMC7230940 (Marine Drugs, 2020)
